Consider one substance from patent publication US9918964B2, “Reducing platelet activation, aggregation and platelet-stimulated thrombosis or blood coagulation by reducing mitochondrial respiration” (priority 2010, dated 2018).

Where “and” joins values, the source holds several entries; their conditions need not be identical. Equal entries are not always repeated.

Data set [1] concerns mitochondria isolated from liver of tilapia (Sarotheridon mossambica). It is filed as biochemical.
Data set [2] has the same test system. The format is biochemical. The note with it: reversible if respiration rate after removing the inhibitor returned to greater than 75% of its value in the absence of inhibitor.
The next data set has as its system platelets in whole blood. As to the kind of experiment: Platelet function testing with the Hemostasis Mechanism Analyzer (HMA): clumping, sticking, clotting in whole blood. It is filed as cell-based, human.
In the next data set the test system is mitochondria. As to the kind of experiment: Hydrogen peroxide levels on mitochondrial inhibition (unpublished results). From the text:
Various experimental models of Parkinson's disease and other maladies have implicated mitochondrial dysfunction and excessive Reactive Oxygen Species (ROS) as possible contributors. Fortunately it is routine in the art to screen mitochondrial inhibitors or indeed any platelet inhibitor for hydrogen peroxide production in vitro, to select active agents that are suitable for long term administration as long as the production of hydrogen peroxide is not excessive.

For tetrazole [Compound 93], the “IC50 (mg/ml) mitochondria inhibition” value in data set [1] is 31.5 mg/mL. In data set [2], the “Reversible?” value was “reversible and Yes”. Further, in the data set with platelets in whole blood, the “% clot time increase” value is 150% and 128% and 114%; the “% clump time increase” value is 211% and 194% and 116%; the “% stick time increase” value is 193% and 173% and 116%. Besides, the hydrogen peroxide levels entry with mitochondria is listed as “elevated levels of hydrogen peroxide”.
